{"source": "patent US7998681B2", "about": "“Diagnosis and therapy of antibody-mediated inflammatory auto-immune disorders” (Los Angeles Biomedical Research Institute at Harbor-UCLA …, priority 2000, dated 2011)", "format_in_all_cases": "cell-based, human", "key": {"RANTES [1]": {"tested_on": "RANTES", "assay": "RANTES ELISA of medium from treated fibroblasts, GD donors", "details": "GD, limit of detection 15 pg/ml", "excerpt": "(§1) In addition to its therapeutic aspects, the present invention also relates to a diagnostic method for detecting the presence of antibody-activated fibroblasts in the patient. Applicants believe that several auto immune diseases or disorders are associated with antibody-activated fibroblasts. […] Altered levels of these chemoattractants can be detected in various biological samples in mammals, preferably humans. Levels of IL-16 and/or RANTES may be monitored in a patient, using standard techniques, as an indication of the deleterious aspects of the disease condition. Biological samples, including but not limited to serum, vitreous humor, aqueous humor, synovial fluid, and tissue, will be drawn from the patient using standard techniques. Particularly preferred are serum samples. The measurement of the IL-16 and RANTES levels may be monitored using any method possible to detect the levels of these proteins in biological samples. A preferred method of analysis is by ELISA as described in Sciaky, D. et al., J. Immunol. 164(7):3806-14, 2000. An ELISA specific for IL-16 can be used to assess the levels released by fibroblasts as described previously in Lim, K. G. et al., J. Immunol. 156(7): 2566-70, 1996. An ELISA specific for RANTES can be used according to the manufacturer's specification (BioSource Intl., Camarillo, Calif.).\n(§2) The levels of IL-16 and RANTES were then assessed with specific ELISAs. The ELISA assay for IL-16 is performed essentially as discussed in Sciaky D., Brazer, W., Center, D. M., Cruikshank, W. W. and Smith, T. J.: Cultured human fibroblasts express constitutive IL-16 mRNA: Cytokine induction of active IL-16 protein synthesis through a caspase-3-dependent mechanism. J. Immunol. 164(7):3806-14, 2000). An ELISA (BioSource) for RANTES was performed according to the manufacturer's instructions."}, "[2]": {"tested_on": "dermal fibroblast strains", "assay": "Glycosaminoglycan (hyaluronan) synthesis in dermal fibroblasts", "details": "dermal fibroblast strains from the same donors", "excerpt": "Applicants have also recently made a number of directly relevant observations of the disordered accumulation of hyaluronan in TAO. Orbital fibroblasts synthesize less hyaluronan constitutively than do dermal fibroblasts (Smith, T. J., Bahn, R. S. and Gorman, C. A.: Hormonal regulation of hyaluronate synthesis in cultured human fibroblasts: evidence for differences between retroocular and dermal fibroblasts. J. Clin. Endocrinol. Metab. 69:1019-1023, 1989). However, interferon-γ can modestly upregulate hyaluronan synthesis in orbital but not dermal fibroblasts (Smith, T. J., Bahn, R. S., Gorman, C. A. and Cheavens, M.: Stimulation of glycosaminoglycan accumulation by interferon gamma in cultured human retroocular fibroblasts. J. Clin. Endocrinol. Metab. 72:1169-1171, 1991). […] The macromolecular material was sensitive to Streptomyces hyaluronidase digestion, defining it as hyaluronan (Smith, T. J., Wang, H.-S. and Evans, C. H.: Leukoregulin is a potent inducer of hyaluronan synthesis in cultured orbital fibroblasts. Am. J. Physiol. 268:C382-C388, 1995, appended). The increase was substantially greater in magnitude than that observed in dermal fibroblast strains from the same donors (3-fold) and on the basis of pulse-chase studies could be attributed to changes in net synthesis."}, "IL-16 [3]": {"tested_on": "IL-16", "assay": "IL-16 ELISA of medium from treated fibroblasts, normal donors", "details": "limit of detection 20 pg/ml", "excerpt": "(§3) In addition to its therapeutic aspects, the present invention also relates to a diagnostic method for detecting the presence of antibody-activated fibroblasts in the patient. Applicants believe that several auto immune diseases or disorders are associated with antibody-activated fibroblasts. Applicants have shown that increased activation of fibroblasts by auto-antibodies can be monitored by determining the levels of IL-16 and/or RANTES production in a patient. Altered levels of these chemoattractants can be detected in various biological samples in mammals, preferably humans. Levels of IL-16 and/or RANTES may be monitored in a patient, using standard techniques, as an indication of the deleterious aspects of the disease condition. Biological samples, including but not limited to serum, vitreous humor, aqueous humor, synovial fluid, and tissue, will be drawn from the patient using standard techniques. Particularly preferred are serum samples. The measurement of the IL-16 and RANTES levels may be monitored using any method possible to detect the levels of these proteins in biological samples. A preferred method of analysis is by ELISA as described in Sciaky, D. et al., J. Immunol. 164(7):3806-14, 2000. An ELISA specific for IL-16 can be used to assess the levels released by fibroblasts as described previously in Lim, K. G. et al., J. Immunol. 156(7): 2566-70, 1996. An ELISA specific for RANTES can be used according to the manufacturer's specification (BioSource Intl., Camarillo, Calif.).\nas §2, with “instructions. In an analysis of over a dozen strains, TAO specific IgG elicit substantial induction of IL-16 and RANTES and in no case were normal fibroblasts so affected.” for “instructions.”"}, "IL-16 [4]": {"tested_on": "IL-16", "assay": "IL-16 ELISA of medium from treated fibroblasts, GD donors", "details": "GD, limit of detection 20 pg/ml", "excerpt": "as §1, §2"}, "RANTES [5]": {"tested_on": "RANTES", "assay": "RANTES ELISA of medium from treated fibroblasts, normal donors", "details": "limit of detection 15 pg/ml", "excerpt": "as §3\nas §2, with “instructions. In an analysis of over a dozen strains, TAO specific IgG elicit substantial induction of IL-16 and RANTES and in no case were normal fibroblasts so affected.” for “instructions.”"}}, "data": [{"substance": "IL-1β: pro-inflammatory cytokine used to activate fibroblasts", "values": [{"measurement": "RANTES", "setting": "RANTES [1]; strain 1, Orbit", "value": "84 ± 8", "unit": "pg/mL"}, {"measurement": "RANTES", "setting": "RANTES [1]; strain 2, Orbit", "value": "116 ± 11", "unit": "pg/mL"}, {"measurement": "RANTES", "setting": "RANTES [1]; strain 3, Abdominal skin", "value": "116 ± 11", "unit": "pg/mL"}, {"measurement": "RANTES", "setting": "RANTES [1]; strain 4, Orbit", "value": "128 ± 26", "unit": "pg/mL"}, {"measurement": "RANTES", "setting": "RANTES [1]; strain 6, Neck skin", "value": "253 ± 42", "unit": "pg/mL"}, {"measurement": "RANTES", "setting": "RANTES [1]; strain 7, Pretibial skin", "value": "128 ± 26", "unit": "pg/mL"}, {"measurement": "RANTES", "setting": "RANTES [1]; strain 9, Orbit", "value": "78 ± 21", "unit": "pg/mL"}, {"measurement": "RANTES", "setting": "RANTES [1]; strain 10, Orbit", "value": "214 ± 30", "unit": "pg/mL"}, {"measurement": "RANTES", "setting": "RANTES [1]; strain 11, Orbit", "value": "69 ± 6", "unit": "pg/mL"}, {"measurement": "up-regulation of glycosaminoglycan synthesis", "setting": "[2]", "value": 3, "unit": "fold"}, {"measurement": "IL-16", "setting": "IL-16 [3]; strain 12, Orbit", "value": "56 ± 10", "unit": "pg/mL"}, {"measurement": "IL-16", "setting": "IL-16 [3]; strain 14, Orbit", "value": "68 ± 9", "unit": "pg/mL"}, {"measurement": "IL-16", "setting": "IL-16 [3]; strain 15, Extremity Skin", "value": "138 ± 15", "unit": "pg/mL"}, {"measurement": "IL-16", "setting": "IL-16 [3]; strain 16, Extremity Skin", "value": "98 ± 19", "unit": "pg/mL"}, {"measurement": "IL-16", "setting": "IL-16 [4]; strain 1, Orbit", "value": "71 ± 9", "unit": "pg/mL"}, {"measurement": "IL-16", "setting": "IL-16 [4]; strain 2, Orbit", "value": "82 ± 9", "unit": "pg/mL"}, {"measurement": "IL-16", "setting": "IL-16 [4]; strain 3, Abdominal skin", "value": "82 ± 9", "unit": "pg/mL"}, {"measurement": "IL-16", "setting": "IL-16 [4]; strain 4, Orbit", "value": "194 ± 29", "unit": "pg/mL"}, {"measurement": "IL-16", "setting": "IL-16 [4]; strain 6, Neck skin", "value": "116 ± 27", "unit": "pg/mL"}, {"measurement": "IL-16", "setting": "IL-16 [4]; strain 7, Pretibial skin", "value": "194 ± 29", "unit": "pg/mL"}, {"measurement": "IL-16", "setting": "IL-16 [4]; strain 8, Pretibial skin", "value": "79 ± 11", "unit": "pg/mL"}, {"measurement": "IL-16", "setting": "IL-16 [4]; strain 9, Orbit", "value": "218 ± 33", "unit": "pg/mL"}, {"measurement": "IL-16", "setting": "IL-16 [4]; strain 10, Orbit", "value": "246 ± 32", "unit": "pg/mL"}, {"measurement": "IL-16", "setting": "IL-16 [4]; strain 11, Orbit", "value": "94 ± 12", "unit": "pg/mL"}, {"measurement": "RANTES", "setting": "RANTES [5]; strain 12, Orbit", "value": "42 ± 9", "unit": "pg/mL"}, {"measurement": "RANTES", "setting": "RANTES [5]; strain 14, Orbit", "value": "79 ± 11", "unit": "pg/mL"}, {"measurement": "RANTES", "setting": "RANTES [5]; strain 15, Extremity Skin", "value": "173 ± 12", "unit": "pg/mL"}, {"measurement": "RANTES", "setting": "RANTES [5]; strain 16, Extremity Skin", "value": "125 ± 9", "unit": "pg/mL"}]}]}
